Test results taken from patent US20260001928A1 (CORTERIA PHARMACEUTICALS, priority 2022, published 2026).
*1 amine or outer side, *2 acyl side, *3 side chain or, on linkers, in order; H or OH if unused. Where a SMILES comes first, the peptide text is derived from it. Side-chain parts run from the residue outwards. [ ]: non-standard residue; d: D form. The star is where a group is joined. C18 diacid = O=C(O)CCCCCCCCCCCCCCCCC(=O)*; C16 diacid = O=C(O)CCCCCCCCCCCCCCC(=O)*; γGlu = O=C(O)[C@H](CCC(=O)[*:2])N[*:1]; NMeI = CC[C@H](C)[C@H](NC)C(=O)O; Api = NC1(C(=O)O)CCNCC1; AEEA = NCCOCCOCC(=O)O; Aib = CC(C)(N)C(=O)O

Key:
CFR1R receptor = biological target: T1, CFR1R receptor (Homo sapiens, UniProt P34998); experiment: Activity at anti-target CFR1R receptor, cAMP assay in CRF1R-overexpression CHO-K1 cells; type: cell-based; details: 100% = Sauvagine at 100 nM; for EC50: cAMP
T1 construct: host or cells: CHO-K1 (clone 2)
T1 sequence (P34998 24-415): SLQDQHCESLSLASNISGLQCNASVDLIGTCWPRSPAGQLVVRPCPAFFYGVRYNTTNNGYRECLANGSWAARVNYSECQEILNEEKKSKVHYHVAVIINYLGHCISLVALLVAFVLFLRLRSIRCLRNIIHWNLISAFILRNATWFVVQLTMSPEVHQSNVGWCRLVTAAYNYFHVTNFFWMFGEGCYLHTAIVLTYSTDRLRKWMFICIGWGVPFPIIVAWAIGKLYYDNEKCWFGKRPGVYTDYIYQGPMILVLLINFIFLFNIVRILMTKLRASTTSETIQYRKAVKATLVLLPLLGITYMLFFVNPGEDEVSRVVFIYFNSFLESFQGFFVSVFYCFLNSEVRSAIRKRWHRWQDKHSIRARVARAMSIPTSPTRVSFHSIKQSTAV
Procedure, shortened: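 Run as for the TeloHAEC line, except the full-activation control well received Sauvagine (100 nM) and final density was 4000 cells/well. Cells from clone 2 came from frozen aliquots of near-confluent cultures.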

human CRF2a receptor = biological target: T2, human CRF2a receptor (Homo sapiens, UniProt Q13324); experiment: Activity at human CRF2a receptor, cAMP functional assay in TeloHEAC cells; type: cell-based; details: TeloHEAC cells stably expressing human CRF2a receptor, relative to urocortin 2 (100 nM = 100%)
T2 construct: expressed in transfected cells; host or cells: TeloHEAC cells
T2 sequence (Q13324 1-411): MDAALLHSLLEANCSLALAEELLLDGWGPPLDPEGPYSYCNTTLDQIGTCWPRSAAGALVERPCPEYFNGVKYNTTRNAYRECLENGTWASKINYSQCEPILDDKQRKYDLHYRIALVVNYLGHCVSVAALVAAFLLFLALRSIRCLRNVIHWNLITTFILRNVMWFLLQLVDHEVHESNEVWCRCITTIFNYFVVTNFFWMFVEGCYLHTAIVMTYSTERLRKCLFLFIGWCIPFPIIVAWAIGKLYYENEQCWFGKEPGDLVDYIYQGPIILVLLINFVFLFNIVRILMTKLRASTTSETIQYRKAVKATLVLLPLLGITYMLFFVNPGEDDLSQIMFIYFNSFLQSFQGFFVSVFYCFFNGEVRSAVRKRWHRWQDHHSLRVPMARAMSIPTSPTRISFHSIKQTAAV
Procedure, shortened: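 TeloHEAC cells stably expressing human CRF2a (10000 cells/well) were treated with 16-point 1:2 compound dilutions in HBSS/20 mM HEPES with IBMX for 30 min at 37° C. cAMP was read by HTRF (665/620 nm ratio). EC50 was the concentration giving 50% activation, with 100 nM urocortin 2 set as 100%.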

| Structure (SMILES) | Emax (% I) (CFR1R receptor) | EC50 (CFR1R receptor) [nM] | EC50 (human CRF2a receptor) [nM] |
| --- | --- | --- | --- |
| CC[C@H](C)[C@H](NC)C(=O)N[C@H](C(=O)N[C@@H](CC(C)C)C(=O)N[C@@H](CO)C(=O)N[C@@H](CC(C)C)C(=O)N[C@@H](CC(=O)O)C(=O)N[C@@H](C(=O)N1CCC[C@H]1C(=O)N[C@H](C(=O)N[C@@H](CCCCN)C(=O)N[C@@H](CC(C)C)C(=O)N[C@@H](CCCCNC(=O)CC[C@H](NC(=O)CCCCCCCCCCCCCCCCC(=O)O)C(=O)O)C(=O)N[C@@H](CCCCN)C(=O)N[C@H](C(=O)N[C@@H](CC(C)C)C(=O)N[C@@H](CC(C)C)C(=O)N[C@@H](CCC(=O)O)C(=O)N[C@@H](CCC(N)=O)C(=O)N[C@@H](CCC(=O)O)C(=O)N[C@@H](CCCCN)C(=O)N[C@@H](CCC(N)=O)C(=O)N[C@@H](CCCCN)C(=O)N[C@@H](CCCCN)C(=O)N[C@@H](CCC(N)=O)C(=O)N[C@@H](CCCNC(=N)N)C(=O)N[C@@H](CCC(=O)O)C(=O)N[C@@H](CCC(N)=O)C(=O)N[C@@H](C)C(=O)N[C@@H](CCC(=O)O)C(=O)N[C@H](C(=O)N[C@@H](CC(N)=O)C(=O)N[C@@H](CCC(=O)O)C(=O)N[C@@H](CCC(N)=O)C(=O)N[C@H](C(=O)N[C@@H](CC(C)C)C(=O)N[C@@H](C)C(=O)N[C@@H](CCC(N)=O)C(=O)N[C@H](C(N)=O)C(C)C)[C@@H](C)CC)[C@@H](C)O)[C@@H](C)CC)[C@@H](C)CC)C(C)C)C(C)C [compound 142] (H-[NMeI]VLSLD[dV]PIKLK([γGlu-C18 diacid])KILLEQEKQKKQREQAETNEQILAQV-NH2) | 3 | > 250 | 0.07 |
| CC[C@H](C)[C@H](N)C(=O)N[C@H](C(=O)N[C@@H](CC(C)C)C(=O)N[C@@H](CO)C(=O)N[C@@H](CC(C)C)C(=O)N[C@@H](CC(=O)O)C(=O)N[C@@H](C(=O)N1CCC[C@H]1C(=O)N[C@H](C(=O)N[C@@H](CCCCN)C(=O)N[C@@H](CC(C)C)C(=O)N[C@@H](CCCCNC(=O)COCCOCCNC(=O)COCCOCCNC(=O)CC[C@H](NC(=O)CCCCCCCCCCCCCCCCC(=O)O)C(=O)O)C(=O)N[C@@H](CCC(N)=O)C(=O)N[C@H](C(=O)N[C@@H](CC(C)C)C(=O)N[C@@H](CC(C)C)C(=O)N[C@@H](CCCCN)C(=O)N[C@@H](CCC(N)=O)C(=O)N[C@@H](CCC(=O)O)C(=O)N[C@@H](CCCNC(=N)N)C(=O)N[C@@H](CCC(N)=O)C(=O)N[C@@H](CCCCN)C(=O)N[C@@H](CCCCN)C(=O)N[C@@H](CCC(N)=O)C(=O)N[C@@H](CCCNC(=N)N)C(=O)N[C@@H](CCC(=O)O)C(=O)N[C@@H](CCC(N)=O)C(=O)N[C@@H](C)C(=O)N[C@@H](CCC(=O)O)C(=O)N[C@@H](CCCCN)C(=O)N[C@@H](CC(N)=O)C(=O)N[C@@H](CCCCN)C(=O)N[C@@H](CCC(N)=O)C(=O)N[C@H](C(=O)N[C@@H](CC(C)C)C(=O)N[C@@H](CCC(=O)O)C(=O)N[C@@H](CCC(N)=O)C(=O)N[C@H](C(N)=O)C(C)C)[C@@H](C)CC)[C@@H](C)CC)[C@@H](C)CC)C(C)C)C(C)C [compound 150] (H-IVLSLD[dV]PIKLK([AEEA-AEEA-γGlu-C18 diacid])QILLKQERQKKQREQAEKNKQILEQV-NH2) | 38 | > 250 | 0.25 |
| CC[C@H](C)[C@H](N)C(=O)N[C@H](C(=O)N[C@@H](CC(C)C)C(=O)N[C@@H](CO)C(=O)N[C@@H](CC(C)C)C(=O)N[C@@H](CC(=O)O)C(=O)N[C@@H](C(=O)N1CCC[C@H]1C(=O)N[C@H](C(=O)N[C@@H](CCCCN)C(=O)N[C@@H](CC(C)C)C(=O)N[C@@H](CCCCNC(=O)CC[C@H](NC(=O)CCCCCCCCCCCCCCC(=O)O)C(=O)O)C(=O)N[C@@H](CCC(N)=O)C(=O)N[C@H](C(=O)N[C@@H](CC(C)C)C(=O)N[C@@H](CC(C)C)C(=O)N[C@@H](CCCCN)C(=O)N[C@@H](CCC(N)=O)C(=O)N[C@@H](CCC(=O)O)C(=O)N[C@@H](CCCNC(=N)N)C(=O)N[C@@H](CCC(N)=O)C(=O)N[C@@H](CCCCN)C(=O)N[C@@H](CCCCN)C(=O)N[C@@H](CCC(N)=O)C(=O)N[C@@H](CCCNC(=N)N)C(=O)N[C@@H](CCC(=O)O)C(=O)N[C@@H](CCC(N)=O)C(=O)N[C@@H](C)C(=O)N[C@@H](CCC(=O)O)C(=O)N[C@@H](CCCCN)C(=O)N[C@@H](CC(N)=O)C(=O)N[C@@H](CCCCN)C(=O)N[C@@H](CCC(N)=O)C(=O)N[C@H](C(=O)N[C@@H](CC(C)C)C(=O)N[C@@H](CCC(=O)O)C(=O)N[C@@H](CCC(N)=O)C(=O)N[C@H](C(N)=O)C(C)C)[C@@H](C)CC)[C@@H](C)CC)[C@@H](C)CC)C(C)C)C(C)C [compound 151] (H-IVLSLD[dV]PIKLK([γGlu-C16 diacid])QILLKQERQKKQREQAEKNKQILEQV-NH2) | 53 |  | 0.12 |

Other lines, results leading:

| Emax (% I) (CFR1R receptor) | EC50 (CFR1R receptor) [nM] | EC50 (human CRF2a receptor) [nM] | Structure (SMILES) |
| --- | --- | --- | --- |
| 25 | > 250 | 0.51 | CC[C@H](C)[C@H](NC(C)=O)C(=O)N[C@H](C(=O)N[C@@H](CC(C)C)C(=O)N[C@@H](CO)C(=O)N[C@@H](CC(C)C)C(=O)N[C@@H](CC(=O)O)C(=O)N[C@@H](C(=O)N1CCC[C@H]1C(=O)N[C@H](C(=O)N[C@@H](CCCCN)C(=O)N[C@@H](CC(C)C)C(=O)N[C@@H](CCCCNC(=O)CC[C@H](NC(=O)CCCCCCCCCCCCCCC(=O)O)C(=O)O)C(=O)N[C@@H](CCCCN)C(=O)N[C@H](C(=O)N[C@@H](CC(C)C)C(=O)N[C@@H](CC(C)C)C(=O)N[C@@H](CCC(=O)O)C(=O)N[C@@H](CCC(N)=O)C(=O)N[C@@H](CCC(=O)O)C(=O)N[C@@H](CCCCN)C(=O)N[C@@H](CCC(N)=O)C(=O)N[C@@H](CCCCN)C(=O)N[C@@H](C)C(=O)N[C@@H](CCC(N)=O)C(=O)N[C@@H](CCCNC(=N)N)C(=O)N[C@@H](CCC(=O)O)C(=O)N[C@@H](CCC(N)=O)C(=O)N[C@@H](C)C(=O)N[C@@H](CCC(=O)O)C(=O)N[C@H](C(=O)N[C@@H](CC(N)=O)C(=O)NC1(C(=O)N[C@@H](CCC(N)=O)C(=O)N[C@H](C(=O)N[C@@H](CC(C)C)C(=O)N[C@@H](C)C(=O)N[C@@H](CCC(N)=O)C(=O)N[C@H](C(N)=O)C(C)C)[C@@H](C)CC)CCNCC1)[C@@H](C)O)[C@@H](C)CC)[C@@H](C)CC)C(C)C)C(C)C [compound 152] (Ac-IVLSLD[dV]PIKLK([γGlu-C16 diacid])KILLEQEKQKAQREQAETN[Api]QILAQV-NH2) |
| 22 | > 250 | 0.41 | CC[C@H](C)[C@H](NC(C)=O)C(=O)N[C@H](C(=O)N[C@@H](CC(C)C)C(=O)N[C@@H](CO)C(=O)N[C@@H](CC(C)C)C(=O)N[C@@H](CC(=O)O)C(=O)N[C@@H](C(=O)N1CCC[C@H]1C(=O)N[C@H](C(=O)N[C@@H](CCCCN)C(=O)N[C@@H](CC(C)C)C(=O)N[C@@H](CCCCNC(=O)CC[C@H](NC(=O)CCCCCCCCCCCCCCC(=O)O)C(=O)O)C(=O)N[C@@H](CCCCN)C(=O)N[C@H](C(=O)N[C@@H](CC(C)C)C(=O)N[C@@H](CC(C)C)C(=O)N[C@@H](CCC(=O)O)C(=O)N[C@@H](CCC(N)=O)C(=O)N[C@@H](CCC(=O)O)C(=O)N[C@@H](CCCCN)C(=O)N[C@@H](CCC(N)=O)C(=O)N[C@@H](CCCCN)C(=O)NC(C)(C)C(=O)N[C@@H](CCC(N)=O)C(=O)N[C@@H](CCCNC(=N)N)C(=O)N[C@@H](CCC(=O)O)C(=O)N[C@@H](CCC(N)=O)C(=O)N[C@@H](C)C(=O)N[C@@H](CCC(=O)O)C(=O)N[C@H](C(=O)N[C@@H](CC(N)=O)C(=O)NC1(C(=O)N[C@@H](CCC(N)=O)C(=O)N[C@H](C(=O)N[C@@H](CC(C)C)C(=O)N[C@@H](C)C(=O)N[C@@H](CCC(N)=O)C(=O)N[C@H](C(N)=O)C(C)C)[C@@H](C)CC)CCNCC1)[C@@H](C)O)[C@@H](C)CC)[C@@H](C)CC)C(C)C)C(C)C [compound 153] (Ac-IVLSLD[dV]PIKLK([γGlu-C16 diacid])KILLEQEKQK[Aib]QREQAETN[Api]QILAQV-NH2) |
